From patent US7179921B2, “Indoline and tetrahydro-quinolines as prodrugs for tumour treatment” (School of Pharmacy, University of London, priority 2001, dated 2007)
Marks after values point to notes of the source that are not given here.

System: Chinese Hamster Ovary (CHO) cell
Test: Cell culture based cytotoxicity measurement (MTT) with and without rat liver microsomal activation
Details: for IC50: Cricetulus griseus, CHO, cells incubated 24 hours, MTT, mean±sd, three experiments
Procedure: Test compound activation by CYP enzymes was carried out using NADPH supplemented rat liver microsomes. Incubation mixtures comprised microsomal protein (1 mg/ml), reduced-nicotinamide adenine dinucleotide phosphate (NADPH,10 mM) and phosphate buffer (pH7.4, 100 mM). Test compound (0.01–100 μM final concentration) in DMSO (20 μl ) was added to the microsomal incubation mixtures (0.5 ml) and incubated for 60 min at 37C. Control incubates contained test compound and microsomal incubation mixture terminated at 0 time. All incubations were terminated by addition of an equal volume of ice-cold acetonitrile and microfuged for 3 min. Aliquots of the supernatant were added to cells in culture.
Chinese Hamster Ovary (CHO) cell were grown in MEM supplemented with 10% dialysed FBS and G418 (400 μg/ml). All cells were seeded at an initial density of 1000 cells/well in 96-well-plates, incubation at 37° C. for 24 hours. Aliquots (0.1 ml) of the test compound/microsomal/acetonitrile supernatnant was then added to the CHO cells. Cells were then incubated for 24 hours at 37° C., 5% CO2. After this time period MTT (50 μl; 2 mg/ml stock solution) was added to each well and cells were incubated for a further 4 hours. During this time period MTT, a hydrogen acceptor tetrazolium salt, is reduced to formazan dye by mitochondrial dehydrogenase of viable cells. The media was aspirated from cells and DMSO (100 μl/well) added to solubilise the is coloured formazan dye. Absorbance of the formazan dye in the 96-well-plates was then determined at 550 nm. The effect of microsomal activation by the test compound on the arrest of CHO cell growth could be determined by comparing the IC50 (concentration that inhibited cell growth by 50%) with and without microsomal incubation.
Effect of compound 3.5 and its metabolism (activation) product on the survival of Chinese hamster ovary cells in culture. Cells were incubated for 24 hours with supernatants from reaction mixtures of compound 3.5 with NADPH fortified rat liver microsomes. […] Values are expressed as the mean±sd for three experiments. […]

COc1ccc2[nH]c(C(=O)N3CC(CCl)c4ccccc43)cc2c1 (stereo not drawn) [compound 3.5, 3-(Chloromethyl)-1--[(5-methoxyindol-2-yl)carbonyl]indoline]
AF = activity factor, ratio of IC50 cytotoxicity values obtained for ± compound activation (CHO cells, IC50 −activation / IC50 +activation): 42.4*
IC50 (control incubate terminated at 0 time (no microsomal activation)): 5510 ± 230 nM
IC50 (supernatant after 60 min incubation with NADPH supplemented rat liver microsomes): 130 ± 30 nM
